US6518304B1, “Fungicidal composition” (Sumitomo Chemical Company, Limited, priority 1993, dated 2003)
Where two headings read alike, the source gives them in different places.

Legend:
[1] = system: gray mold fungi sensitive to benzimidazole type fungicidal compounds; assay: Test Example 17: cucumber gray mold, benzimidazole-sensitive fungus; conditions: 20 ppm; cucumber seedling
Procedure: (§1) Each of plastic pots was filled with sandy loam and sown with cucumber (Sagamihanjiro), followed by growing in a greenhouse for 14 days. A wettable powder of test agents prepared according to Formulation Example 59 was diluted to a predetermined concentration with water, and foliage application of the dilution was carried out so as to adhere the dilution sufficiently to the surfaces of leaves of the grown cucumber young seedling. After air-drying, each of gray mold fungi sensitive and tolerant, respectively, to benzimidazole type fungicidal compounds was inoculated on the surfaces of leaves of the young seedling, and the young seedling was grown in the dark at 10° C. and a high humidity for 4 days, after which the infection rate (%) was investigated.

[2] = system: grape downy mildew fungus; assay: Test Example 9: grape downy mildew, foliage application then inoculation; conditions: 10 ppm; grape seedling
Procedure: (§2) Each of plastic pots was filled with sandy loam and sown with grape (Berry A), followed by growing in a greenhouse for 40 days. […] Then, the young seedling was inoculated with a suspension of zoosporangia of grape downy mildew fungus by spraying. After the inoculation, the young seedling was allowed to stand overnight at 23° C. and a high humidity and then grown in a greenhouse for 7 days, after which the infection rate (%) was investigated.

[3] = system: gray mold fungi tolerant to benzimidazole type fungicidal compounds; assay: Test Example 17: cucumber gray mold, benzimidazole-tolerant (resistant) fungus; conditions: 20 ppm; cucumber seedling
Procedure: as §1

[4] = system: gray mold fungi sensitive to benzimidazole type fungicidal compounds; assay: Test Example 12: cucumber gray mold, benzimidazole-sensitive fungus; conditions: 20 ppm; cucumber seedling
Procedure: Each of plastic pots was filled with sandy loam and sown with cucumber (Sagamihanjiro), followed by growing in a greenhouse for 14 days. A wettable powder of test agents prepared according to Formulation Example 41 was diluted to a predetermined concentration with water, and foliage application of the dilution was carried out so as to adhere the dilution sufficiently to the surfaces of leaves of the grown cucumber young seedling. After air-drying, each of gray mold fungi sensitive and tolerant, respectively, to benzimidazole type fungicidal compounds was inoculated on the surfaces of leaves of the young seedling, and the young seedling was grown in the dark at 10° C. and a high humidity for 4 days, after which the infection rate (%) was investigated.

gray mold fungus [5] = assay: Test Example 4: cucumber gray mold, foliage application after inoculation; conditions: 20 ppm; cucumber seedling, applied after inoculation
Procedure: Each of plastic pots was filled with sandy loam and sown with cucumber (Sagamihanjiro), followed by growing in a greenhouse for 14 days. Gray mold fungus was inoculated on the surfaces of leaves of the grown cucumber young seedling, and the young seedling was grown in the dark at 10° C. and a high humidity for 2 days and then at a temperature of 23° C. for 3 days. A wettable powder of test agents prepared according to Formulation Example 11 was diluted to a predetermined concentration with water, and foliage application of the dilution was carried out so as to adhere the dilution sufficiently to the surfaces of leaves of the cucumber young seedling. After the spraying, the young seedling was grown in the dark at 10° C. and a high humidity for 3 days, and then the infection rate (%) was investigated.

[6] = system: tomato late blight fungus (Phytophthora infestans); format: in vivo; conditions: 10 ppm; tomato plant, 1 week at 24° C.
gray mold fungus [7] = assay: Test Example 11: cucumber gray mold, foliage application before inoculation; conditions: 20 ppm; cucumber seedling
Procedure: Each of plastic pots was filled with sandy loam and sown with cucumber (Sagamihanjiro), followed by growing in a greenhouse for 14 days. A wettable powder of test agents prepared according to Formulation Example 35 was diluted to a predetermined concentration with water, and foliage application of the dilution was carried out so as to adhere the dilution sufficiently to the surfaces of leaves of the grown cucumber young seedling. After air-drying, gray mold fungus was inoculated on the surfaces of leaves of the young seedling, and the young seedling was grown in the dark at 10° C. and a high humidity for 4 days, after which the infection rate (%) was investigated.

[8] = system: tomato late blight fungus; format: in vivo, Phytophthora infestans; conditions: 5 ppm; tomato seedling
[9] = system: grape downy mildew fungus (Plasmopara viticola); assay: Test Example 2: grape downy mildew, spray then inoculation, infection rate; format: in vivo; conditions: 10 ppm; grape plant, 1 week at 24° C.
Text: A grape plant (cultivar: Berry A) was planted in each pot and was sprayed with a sufficient volume of a dilution with a predetermined concentration of a wettable powder obtained according to Formulation Example 5, after the plant put out a fourth leaf.

[10] = system: grape downy mildew fungus; assay: Test Example 7: grape downy mildew, foliage application then inoculation; conditions: 2 ppm; grape seedling
Procedure: as §2

gray mold fungus [11] = assay: Test Example 3: cucumber gray mold, foliage application before inoculation; conditions: 20 ppm; cucumber seedling, applied before inoculation, 4 days
Procedure: Each of plastic pots was filled with sandy loam and sown with cucumber (Sagamihanjiro), followed by growing in a greenhouse for 14 days. A wettable powder of test agents prepared according to Formulation Example 11 was diluted to a predetermined concentration with water, and foliage application of the dilution was carried out so as to adhere the dilution sufficiently to the surfaces of leaves of the grown cucumber young seedling. After air-drying, gray mold fungus was inoculated on the surfaces of leaves of the young seedling, and the young seedling was grown in the dark at 10° C. and a high humidity for 4 days, after which the infection rate (%) was investigated.

apple scab fungus [12] = assay: Test Example 13: apple scab, foliage application then inoculation; format: in vivo, Venturia inaequalis; conditions: 0.5 ppm; apple seedling
[13] = system: tomato late blight fungus; format: in vivo, Phytophthora infestans; conditions: 10 ppm; tomato seedling
[14] = system: grape powdery mildew fungus (Uncinula necator); assay: Test Example 14: grape powdery mildew, spray then inoculation; format: in vivo; conditions: 1 ppm; grape plant, 3 weeks at 24° C.
[15] = system: grape downy mildew fungus; assay: Test Example 6: grape downy mildew, foliage application then inoculation; conditions: 1 ppm; grape seedling
Procedure: as §2

[16] = system: tomato late blight fungus (Phytophthora infestans); format: in vivo; conditions: 10 ppm; tomato plant, 1 week at 24° C.; remark: listed apart in the source
apple scab fungus [17] = assay: Test Example 8: apple scab, foliage application then inoculation; format: in vivo, Venturia inaequalis; conditions: 0.5 ppm; apple seedling
[18] = system: gray mold fungi tolerant to benzimidazole type fungicidal compounds; assay: Test Example 12: cucumber gray mold, benzimidazole-tolerant (resistant) fungus; conditions: 20 ppm; cucumber seedling
Procedure: Each of plastic pots was filled with sandy loam and sown with cucumber (Sagamihanjiro), followed by growing in a greenhouse for 14 days. […] After air-drying, each of gray mold fungi sensitive and tolerant, respectively, to benzimidazole type fungicidal compounds was inoculated on the surfaces of leaves of the young seedling, and the young seedling was grown in the dark at 10° C. and a high humidity for 4 days, after which the infection rate (%) was investigated.

[19] = system: grape powdery mildew fungus (Uncinula necator); assay: Test Example 16: grape powdery mildew, spray then inoculation; format: in vivo; conditions: 10 ppm; grape plant, 3 weeks at 24° C.

## CNC(=O)C(=NOC)c1ccccc1COc1cc(C)ccc1C [Compound (Ie), N-methyl-α-methoxyimino-2-[(2,5-dimethylphenoxy)methyl]phenylacetamide]
[1]
  Infection rate (%) Sensitive fungus: 25%
[2]
  Infection rate (%): 25%
[3]
  Infection rate (%) Resistant fungus: 25%
[4]
  Infection rate (%) Sensitive fungus: 25%
Gray mold fungus [5]
  Infection rate (%): 25%
[6]
  Infection rate (%): 25%
Gray mold fungus [7]
  Infection rate (%): 25%
[8]
  Infection rate (%): 25%
[9]
  Infection rate (%): 25%
[10]
  Infection rate (%): 20%
Gray mold fungus [11]
  Infection rate (%): 25%
Apple scab fungus [12]
  Infection rate (%): 20%
[13]
  Infection rate (%): 20%
[14]
  Infection rate (%): 25%
[15]
  Infection rate (%): 25%
[16]
  Infection rate (%): 25%
Apple scab fungus [17]
  Infection rate (%): 20%
[18]
  Infection rate (%) Resistant fungus: 25%
[19]
  Infection rate (%): 25%
